{"source": "PubChem BioAssay AID1963843", "about": "(Molecular Pharmacology Branch, DTP, NCI, 2024)", "test_system": "616215-338-R-J1-PDC complex spheroid viability", "experiment": "Anticancer human tumor 616215-338-R-J1-PDC patient-derived colon adenocarcinoma cell line growth inhibition [POLQ]", "settings": "for viability, T/C: stronger effect = lower value", "description": "Multicellular complex tumor spheroid response to Polymerase (POL) inhibitors (novobiocin, ART-558, RP6685) in combination with a variety of drugs and investigational agents in selected tumor cell lines\nThe POL inhibitors (novobiocin, ART-558, and RP6685) were evaluated both individually and in combination with standard of care and investigational anticancer small molecules within a complex spheroid model of solid tumors. . Complex spheroids include a stromal component modeled by human endothelial cells (HUVEC) and fibroblasts modeled by human mesenchymal stem cells (MSCs). The concentration ranges selected for each drug and investigational agent were based upon clinically achievable concentrations if the clinical Cmax of the agent was known.\nCompounds. The drugs and investigational agents: novobiocin (NSC847541), ART-558 (NSC835418), RP-6685 (NSC848927), peposertib (NSC802822), ceralasertib (NSC780249), elimusertib (NSC800525), camonsertib (NSC841442), AZD-1390 (NSC803789), olaparib (NSC753686), talazoparib (NSC767125), rucaparib (NSC756644), sotorasib (NSC818433), MRTX-1133 (NSC836407), SN-38 (NSC673596), topotecan (NSC609699), epotoside (NSC141540), doxorubicin (NSC123127), gemcitabine (NSC613327), 5-fluorouracil (NSC19893), paclitaxel (NSC125973), vemurafenib (NSC761431), MSA-2 (NSC828583), SN-011 (NSC837082), adavosertib (NSC754352), prexasertib (NSC758257), carboplatin (NSC241240) and oxaliplatin (NSC266046), were obtained from the National Cancer Institute (NCI) Developmental Therapeutics Program Chemical Repository (21). The FDA-approved anticancer drug set is available from the Developmental Therapeutics Program at https://dtp.cancer.gov/organization/dscb/obtaining/. […] The stock solutions were prepared in dimethyl sulfoxide (DMSO, Sigma-Aldrich, St. Louis, MO, cat. D2650), except for the platinum compounds which were prepared in saline (Quality Biological, Gaithersburg, MD, cat. 114-055-101), at 800-fold the tested concentration and stored at -70 degrees C prior to their use. All drugs and investigational agents were tested over a range starting from a high concentration at or near the clinical Cmax and decreasing in half-log increments. If the clinical Cmax for an agent had not been determined, the highest concentration tested was 10 microM, except for SN-38, which was tested at a high concentration of 1 microM.\nCell Culture. All cells were maintained in an incubator at 37 degrees C and 5% CO2 with 95% humidity. The PDC lines were cultured according to standard operating procedures established by the NCI PDMR (https://pdmr.cancer.gov). Table 3 of the manuscript, lists the cell lines along with the number of the three cell types plated to form the mct-spheroids and media for tumor cell growth. After thawing, all PDC lines, except 997537-175-T-J1-PDC and 415267-285-R-J2-PDC, were cultured in Matrigel-coated flasks prepared with a working solution of 1X Ham's F-12 nutrient mix, without supplementation (Thermo Fisher Scientific, cat. 11765054), 100 U/mL penicillin-streptomycin (Thermo Fisher Scientific, cat. 15140122), and 2.5% Matrigel (Corning Inc., Corning, NY, cat. 354248) for the first three passages. The two PDC lines 997537-175-T-J1-PDC and 415267-285-R-J2-PDC were cultured on uncoated flasks. The 857933-349-R-J2-PDC line was cultured in 6C/Colon 1B media containing advanced DMEM/F-12 (Thermo Fisher Scientific, cat. 12634028), 10 mM HEPES (Thermo Fisher Scientific, cat. 15630080), 1X GlutaMAX supplement (Thermo Fisher Scientific, cat. 35050061), 0.1 mg/mL primocin (InvivoGen, San Diego, CA, cat. ant-pm-2), 10% defined fetal bovine serum, heat inactivated (HyClone Laboratories Inc., Logan, UT, cat. SH30070.03HI), 50% L-WRN conditioned media (ATCC, cat. CRL-3276), 1.25 mM N-Acetyl-L-cysteine (Sigma-Aldrich, cat. A9165), 10 mM nicotinamide (Sigma-Aldrich, cat. N0636), 1X B-27 supplement (Thermo Fisher Scientific, cat. 17504044), 1X N-2 supplement (Thermo Fisher Scientific, cat. […]", "note": "pIC50: −log10 of the molar value.", "data": [{"compound": "COC1C(OC(N)=O)C(O)C(Oc2ccc3c(O)c(NC(=O)c4ccc(O)c(CC=C(C)C)c4)c(=O)oc3c2C)OC1(C)C", "note": "(centres undefined);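 also: spheroids exposed to compounds for one week before readout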;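 as to viability, T/C: percent viability relative to DMSO vehicle wells taken as 100%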", "values": [{"measurement": "viability, T/C", "setting": "compound 0.0316 µM", "value": "101% [middle of 13 runs]"}, {"measurement": "viability, T/C", "setting": "compound 0.1 µM", "value": "102% [middle of 12 runs]"}, {"measurement": "viability, T/C", "setting": "compound 0.316 µM", "value": "103% [middle of 13 runs]"}, {"measurement": "viability, T/C", "setting": "compound 1 µM", "value": "99.2% [middle of 13 runs]"}, {"measurement": "viability, T/C", "setting": "compound 3.16 µM", "value": "101% [middle of 13 runs]"}, {"measurement": "viability, T/C", "setting": "compound 10 µM", "value": "100% [middle of 13 runs]"}, {"measurement": "pIC50", "setting": "compound alone, run of 11/27/2023", "value": "< 5.00"}]}, {"compound": "CC1COCCN1c1cc(C2(S(C)(=N)=O)CC2)nc(-c2ccnc3[nH]ccc23)n1", "note": "(centres undefined) + Cc1cccc(N(C)C(=O)C2C(O)CCN2c2nc(C)cc(C(F)(F)F)c2C#N)c1", "values": [{"measurement": "pIC50", "setting": "curve of first compound, second compound 0.0316 µM", "value": "< 5.00"}, {"measurement": "pIC50", "setting": "curve of first compound, second compound 0.1 µM", "value": "< 5.00"}, {"measurement": "pIC50", "setting": "curve of first compound, second compound 0.316 µM", "value": "< 5.00"}, {"measurement": "pIC50", "setting": "curve of first compound, second compound 1 µM", "value": "< 5.00"}, {"measurement": "pIC50", "setting": "curve of first compound, second compound 3.16 µM", "value": "< 5.00"}, {"measurement": "pIC50", "setting": "curve of first compound, second compound 10 µM", "value": "< 5.00"}, {"measurement": "viability, T/C", "setting": "second compound 0.0316 µM, first compound 0.0316 µM", "value": 88.5, "unit": "%"}, {"measurement": "viability, T/C", "setting": "second compound 0.0316 µM, first compound 0.1 µM", "value": 104, "unit": "%"}, {"measurement": "viability, T/C", "setting": "second compound 0.0316 µM, first compound 0.316 µM", "value": 94.8, "unit": "%"}, {"measurement": "viability, T/C", "setting": "second compound 0.0316 µM, first compound 1 µM", "value": 99.7, "unit": "%"}, {"measurement": "viability, T/C", "setting": "second compound 0.0316 µM, first compound 3.16 µM", "value": 101, "unit": "%"}, {"measurement": "viability, T/C", "setting": "second compound 0.0316 µM, first compound 10 µM", "value": 69.1, "unit": "%"}, {"measurement": "viability, T/C", "setting": "second compound 0.1 µM, first compound 0.0316 µM", "value": 102, "unit": "%"}, {"measurement": "viability, T/C", "setting": "second compound 0.1 µM, first compound 0.1 µM", "value": 95.1, "unit": "%"}, {"measurement": "viability, T/C", "setting": "second compound 0.1 µM, first compound 0.316 µM", "value": 101, "unit": "%"}, {"measurement": "viability, T/C", "setting": "second compound 0.1 µM, first compound 1 µM", "value": 101, "unit": "%"}, {"measurement": "viability, T/C", "setting": "second compound 0.1 µM, first compound 3.16 µM", "value": 95.6, "unit": "%"}, {"measurement": "viability, T/C", "setting": "second compound 0.1 µM, first compound 10 µM", "value": 68.2, "unit": "%"}, {"measurement": "viability, T/C", "setting": "second compound 0.316 µM, first compound 0.0316 µM", "value": 94.9, "unit": "%"}, {"measurement": "viability, T/C", "setting": "second compound 0.316 µM, first compound 0.1 µM", "value": 98.9, "unit": "%"}, {"measurement": "viability, T/C", "setting": "second compound 0.316 µM, first compound 0.316 µM", "value": 96.8, "unit": "%"}, {"measurement": "viability, T/C", "setting": "second compound 0.316 µM, first compound 1 µM", "value": 102, "unit": "%"}, {"measurement": "viability, T/C", "setting": "second compound 0.316 µM, first compound 3.16 µM", "value": 89.1, "unit": "%"}, {"measurement": "viability, T/C", "setting": "second compound 0.316 µM, first compound 10 µM", "value": 62, "unit": "%"}, {"measurement": "viability, T/C", "setting": "second compound 1 µM, first compound 0.0316 µM", "value": 113, "unit": "%"}, {"measurement": "viability, T/C", "setting": "second compound 1 µM, first compound 0.1 µM", "value": 102, "unit": "%"}, {"measurement": "viability, T/C", "setting": "second compound 1 µM, first compound 0.316 µM", "value": 98.2, "unit": "%"}, {"measurement": "viability, T/C", "setting": "second compound 1 µM, first compound 1 µM", "value": 101, "unit": "%"}, {"measurement": "viability, T/C", "setting": "second compound 1 µM, first compound 3.16 µM", "value": 97, "unit": "%"}, {"measurement": "viability, T/C", "setting": "second compound 1 µM, first compound 10 µM", "value": 69.1, "unit": "%"}, {"measurement": "viability, T/C", "setting": "second compound 3.16 µM, first compound 0.0316 µM", "value": 102, "unit": "%"}, {"measurement": "viability, T/C", "setting": "second compound 3.16 µM, first compound 0.1 µM", "value": 96, "unit": "%"}, {"measurement": "viability, T/C", "setting": "second compound 3.16 µM, first compound 0.316 µM", "value": 91.5, "unit": "%"}, {"measurement": "viability, T/C", "setting": "second compound 3.16 µM, first compound 1 µM", "value": 104, "unit": "%"}, {"measurement": "viability, T/C", "setting": "second compound 3.16 µM, first compound 3.16 µM", "value": 86.4, "unit": "%"}, {"measurement": "viability, T/C", "setting": "second compound 3.16 µM, first compound 10 µM", "value": 74.7, "unit": "%"}, {"measurement": "viability, T/C", "setting": "second compound 10 µM, first compound 0.0316 µM", "value": 114, "unit": "%"}, {"measurement": "viability, T/C", "setting": "second compound 10 µM, first compound 0.1 µM", "value": 111, "unit": "%"}, {"measurement": "viability, T/C", "setting": "second compound 10 µM, first compound 0.316 µM", "value": 103, "unit": "%"}, {"measurement": "viability, T/C", "setting": "second compound 10 µM, first compound 1 µM", "value": 111, "unit": "%"}, {"measurement": "viability, T/C", "setting": "second compound 10 µM, first compound 3.16 µM", "value": 95.7, "unit": "%"}, {"measurement": "viability, T/C", "setting": "second compound 10 µM, first compound 10 µM", "value": 71.7, "unit": "%"}]}]}
